This passage reports TGI and GI50 results from PubChem BioAssay (NCI).

Values joined by “and” are separate entries in the source; they are usually repeats but may differ in a detail not shown here. Identical values can stand only once.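 The compound was tested at five concentrations on cells cultured in 96-well plates, with a 48-hour exposure period. Here, GI50 denotes the concentration required for 50% inhibition of growth. TGI denotes the concentration required for complete inhibition of growth.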 A value given as a limit tells only on which side of the number the result lay.

What all share (assay): inhibition of tumour cell growth, NCI panel, 48 h
Assay [1] has as its system COLO 205 colon.
The subject of assay [2] is HCT-116 colon.
Assay [3] concerns HCT-15 colon.
The test system of assay [4] is HOP-62 NSCLC.
Assay [5] has as its system K-562 leukemia.
The subject of assay [6] is NCI-H226 lung.
Assay [7] has as its system SK-MEL-5 melanoma.
Assay [8] deals with RXF 393 renal.
Assay [9] has as its system SK-MEL-2 melanoma.
Assay [10] has as its system SF-539 CNS.

Regarding `CCCCCCCCOCC(O)COC(=O)CCCCCCC` (stereo not given), the TGI in assay [1], in assay [2], in assay [3], in [4], in assay [5] and in assay [6] was > 100 µM each time. Also, in assay [7], the TGI is > 100 µM.

Take `Cc1ccc2ncnc(N(CC(C)C)CC(C)C)c2c1`: the GI50 is 16.9 µM in [1]; 17.9 µM in [3]; 15.5 µM in assay [4]; 3.69 µM in assay [5]; 15.2 µM in [6]; 11.5 µM in [8]. Besides, the GI50 in [9] was 61.1 µM; in assay [7], 6.9 µM. For the same molecule, the TGI is 39.1 µM in assay [1]; 27.7 µM in [2]; 34.6 µM in assay [3]; 31.2 µM in assay [4]; 21.7 µM in assay [5]; 34.8 µM in assay [6]. The TGI in [8] is 27.7 µM; in assay [9] it was > 100 µM; in assay [7], 25.6 µM.

Consider `COc1ccc(C2CC(c3cc(C)ccc3O)=NC(N)=N2)cc1` (stereo not given), for which the TGI in assay [1], in [2], in [3], in assay [4], in assay [5] and in [6] was > 100 µM each time. Also, the TGI in assay [8] and in [10] was > 100 µM in each case.

With `CC(/C(=N\Nc1ccccc1)c1ccc(O)cc1)C1C(=O)Oc2ccccc21` (stereo not given), the TGI in [1], in assay [2], in [3], in [4], in assay [5] and in assay [8] was > 100 µM in each case. The TGI in [10], in [9] and in [7] was > 100 µM each time.

`O=[N+]([O-])c1ccc(Sc2ncnc3nc[nH]c23)c2nonc12`: the GI50 is 2.17 µM in [1]; 2.59 µM in assay [2]; 10.5 µM in [3]; 4.97 µM in [4]; 0.436 µM in assay [5]; 11.7 µM in [6]. Moreover, the figures for the GI50 in [10], in assay [9] and in assay [7] were 4.53 µM, 4.36 µM and 10.2 µM, respectively. Moreover, the TGI in assay [1] is 4.67 µM; in [2], 12.9 µM; in [3], 36.1 µM; in assay [4], 20.7 µM; in assay [5], 2.72 µM; in assay [6], 30.5 µM. For the same molecule, the TGI stood at 21.5 µM in [10], 15.9 µM in assay [9] and 22.3 µM in assay [7].

Consider `O=C(/C(=C\c1ccc([N+](=O)[O-])cc1)S(=O)Cc1ccc(F)cc1)c1ccc(F)cc1` (stereo not given), for which the GI50 in assay [1] was 1.91 µM; in assay [2], 1.64 µM; in assay [3], 1.64 µM; in assay [4], 2.74 µM; in assay [6] it was 4.32 µM; in assay [8] it was 1.78 µM. For the same molecule, the figures for the GI50 in assay [10], in [9] and in assay [7] were 1.69 µM, 2.2 µM and 1.8 µM, respectively. The TGI in [1] was found to be 3.63 µM; in [2], 3.07 µM; in assay [3], 4.43 µM; in assay [4], 8.28 µM; in assay [6] it was 21.9 µM; in assay [8], 3.38 µM. For the same molecule, the values for the TGI in assay [10], in [9] and in assay [7] were 3.37 µM, 5.47 µM and 3.5 µM, respectively.

With `CC1SC2=NC3=C(c4ccccc4C3=O)C(c3ccc(Cl)cc3)N2C1=O` (stereo not given), the TGI in assay [1], in [3], in [4], in assay [5], in assay [6] and in assay [9] was > 100 µM throughout. For the same molecule, in assay [7], the TGI is > 100 µM.

For `COC(=O)C(C(=O)C(=O)Nc1nc(=S)[nH][nH]1)c1csc(-n2nc(-c3ccccc3)cc2-c2ccccc2)n1` (stereo not given), the TGI in assay [1], in assay [2], in [3], in assay [4], in assay [5] and in assay [6] was > 100 µM throughout. The TGI in assay [8] was > 100 µM.

With `CC1(C)CCC2=C(O1)c1ccccc1C(=O)C2=O`, the TGI in [1] is 3.63 µM; in assay [2], 2.01 µM and 0.738 µM; in assay [3], 2.33 µM and 1.79 µM; in [4] it was 4.14 µM and 1.48 µM; in assay [6], 3.77 µM and 2.89 µM; in [8], 3.04 µM and 2.94 µM. Besides, the TGI in assay [10] is 2.99 µM and 0.918 µM; in assay [9], 4.13 µM and 3.07 µM; in assay [7], 2.19 µM and 0.714 µM. In addition, the GI50 in assay [2] is 0.511 µM; in assay [3] it was 0.739 µM and 0.537 µM; in assay [4] it was 1.82 µM; in [6], 1.84 µM; in assay [8], 1.66 µM; in assay [10], 1.63 µM. Also, the GI50 is 2.05 µM in assay [9] and 1.01 µM in [7].

Turning to `CC(=O)Nc1cc(N(CCOS(C)(=O)=O)CCOS(C)(=O)=O)ccc1N=O`, the TGI in [1], in [2], in assay [3], in assay [4], in [5] and in [6] was > 100 µM in each case. Moreover, the TGI in assay [10], in assay [9] and in [7] was > 100 µM throughout.

Regarding `CO[C@@H]1C=C[C@@]23c4cc5c(cc4C(=O)O[C@H]2CN(C)[C@H]3C1)OCO5`, the TGI in assay [1], in [2], in [5], in [8], in [10] and in assay [9] was > 100 µM in each case. In addition, the TGI in assay [7] is > 100 µM.

In the case of `COC(=O)C(CC(C)C)NC(=O)NC12CC3CC(CC(F)(C3)C1)C2` (stereo not given), the TGI in [1], in assay [2], in assay [4], in assay [5], in [8] and in [10] was > 100 µM throughout. The TGI in [9] and in assay [7] was > 100 µM throughout.

Regarding `CC[P+](C)(C)c1ccccc1`, the TGI in assay [1], in [3], in [4], in assay [5], in assay [8] and in [10] was > 100 µM in each case. Moreover, the TGI in assay [9] and in assay [7] was > 100 µM each time.

Consider `O=C(O)c1cc(/C=C/c2cc(O)ccc2O)ccc1O`, for which the TGI in assay [3], in assay [5], in [6], in [10] and in assay [9] was > 10 µM each time.

As to `CC(=O)c1ccc(OCC(O)CO)cc1` (stereo not given), the TGI in [1] was > 100 µM; in assay [2], 33.5 µM; in [3], > 100 µM; in assay [4] it was > 100 µM; in assay [5], > 100 µM; in assay [6] it was > 100 µM. For the same molecule, the TGI in assay [10] and in assay [7] was > 100 µM each time.

In the case of `O=C(CN(/C=C/C(=O)C(F)(F)F)c1ccc(Cl)cc1)c1ccccc1`, the GI50 in [1] is 15.3 µM; in [2], 11.6 µM; in assay [3], 15.1 µM; in assay [4], 11.4 µM; in assay [5], 2.8 µM; in assay [8], 21.7 µM. The GI50 in [10] is 13.1 µM; in [9], 15.5 µM; in assay [7], 12.1 µM. The TGI in [1] was > 100 µM; in assay [2], 23.7 µM; in [3], 38.7 µM; in [4] it was 24.5 µM; in [5], > 100 µM; in assay [8], 43.5 µM. Moreover, the values for the TGI in assay [10], in [9] and in [7] were 27.8 µM, 35.6 µM and 27.7 µM, respectively.

Consider `COc1c(C(=O)c2ccc([N+](=O)[O-])cc2)cc(C(C)(C)C)cc1C(C)(C)C`, for which the TGI in assay [2] is 62.9 µM; in assay [3], > 100 µM; in assay [4], > 100 µM; in [5], > 100 µM; in assay [8], 62.2 µM; in assay [10], > 100 µM. The TGI came to 30.1 µM in [9] and 32.1 µM in assay [7].

Take `COC(=O)C(Cc1cc(OC)c(OC)c(OC)c1)c1ccc(OC)cc1` (stereo not given): the TGI in [1], in assay [2], in assay [3], in assay [4], in assay [5] and in [6] was > 100 µM in each case. In addition, the TGI in [8], in assay [10] and in [7] was > 100 µM throughout.

Consider `CCc1c(Cc2[nH]c(Cc3[nH]c(C=O)c(C)c3CC)c(CC)c2CC)[nH]c(C=O)c1C`, for which the TGI in assay [1], in assay [2], in assay [3], in [4], in [5] and in assay [6] was > 100 µM in each case. Besides, the TGI in assay [8], in assay [10] and in assay [7] was > 100 µM each time.

As for `NNC(=O)CNC(=O)c1ccc(Cl)cc1Cl`, the TGI in [1], in assay [2], in assay [3], in assay [4], in assay [5] and in [6] was > 100 µM each time. In addition, the TGI in [10] and in assay [7] was > 100 µM each time.

`CC1C[C@H](C)CC(C(O)CC2CC(=O)N(Cc3ccccc3)C(=O)C2)C1O` (stereo not given in full): the TGI in assay [1], in assay [2], in [4], in assay [5], in assay [6] and in assay [8] was > 100 µM throughout. Also, in assay [10], the TGI was > 100 µM.

Regarding `Nc1nc2c(s1)CCc1c-2c(Br)n(Cc2ccccc2)c1Br`, the GI50 is 2.53 µM in assay [1]; 2.53 µM in assay [2]; 3.98 µM in assay [3]; 18 µM in [4]; 3.55 µM in assay [5]; 2.23 µM in assay [8]. Besides, the GI50 in assay [10] is 15.4 µM; in [9], 21.6 µM; in assay [7], 14.3 µM. Also, the TGI was determined as 5.13 µM in [1]; 6.43 µM in assay [2]; 15.9 µM in [3]; 33.6 µM in [4]; 19.3 µM in assay [5]; 6.38 µM in assay [8]. In addition, the TGI in assay [10] was found to be 29.2 µM; in assay [9], 43.4 µM; in assay [7] it was 30.2 µM.

As for `COC(=O)/C(=N\Nc1nc(=S)[nH]n1N)C(C#N)c1ccccc1` (stereo not given), the TGI in assay [1], in [2], in assay [3], in [4], in assay [5] and in assay [6] was > 100 µM in each case. The TGI in [8], in [9] and in assay [7] was > 100 µM in each case.

Regarding `O=C1c2ccccc2C(=O)N1CCN(CCN1C(=O)c2ccccc2C1=O)Cn1cccn1`, the TGI in [1] is > 100 µM; in assay [2], 31.6 µM; in assay [3], > 100 µM; in assay [4], > 100 µM; in [5], > 100 µM; in assay [8], > 100 µM. Moreover, the TGI in assay [9] and in assay [7] was > 100 µM each time.

In the case of `O=C(c1ccccc1)N1C2CCC1C(C(F)(F)F)=C2C(F)(F)F`, the TGI in assay [1], in assay [2], in [3], in assay [4], in assay [5] and in [6] was > 100 µM in each case. Also, the TGI in [8], in assay [10] and in assay [7] was > 100 µM throughout.

With `Cc1cccc2c1N(C(=O)/C=C\C(=O)O)C(c1c(C)[nH]c3ccccc13)C2` (stereo not given), the TGI is > 10 µM in assay [1]; 54.3 µM in assay [2]; > 100 µM in assay [4]; > 100 µM in [5]; > 100 µM in [6]; 36 µM in assay [9]. This molecule registered a TGI in assay [7] of 32.8 µM.

Take `CCOC(=O)C1C2CCC(C2)C1(CCl)C(=O)OCC` (stereo not given): the TGI in [1], in assay [2], in assay [3], in assay [4], in assay [5] and in assay [6] was > 100 µM each time. Also, the TGI in [7] is > 100 µM.
